These results are taken from patent US20020082273A1, “Agents for use in the treatment of alzheimer's disease” (priority 1998, published 2002).

In the test the test system is Aβ. The test is described as follows: Effect of agents on Cu^2+-induced SDS-resistant Aβ polymerization. The test is classed as biochemical, human. The procedure: Cu^2+-induced SDS-resistant oligomerization of Aβ: Aβ (2.5 μM), 150 mM NaCl, 20 mM hepes (pH 6.6, 7.4, 9) with or without ZnCl2 or CuCl2. Following incubation (37° C.), aliquots of each reaction (2 ng peptide) were collected at 0 d, 1 d, 3 d and 5 d and western blotted using anti-Aβ monoclonal antibody 8E10 (FIG. 9). Migration of the molecular size markers are indicated (kDa). […] Cu^2+ (2-30 μM) induced SDS-resistant polymerization of peptide. […] It should be noted that other means of visualizing and/or determining the presence or absence of polymerization other than western blot analysis may be used. Such other means include but are not limited to density sedimentation by centrifugation of the samples.
It is possible that the decreased polymerization may be due to chelation of Cu^2+ by BC, however given the low binding affinity of BC for Cu^2+ compared with Aβ, it seems likely that the chelation of Cu^+ by BC prevents it from inducing SDS-resistant Ad polymerization. Therefore, Aβ may undergo a hydroxyl radical modification that promotes its assembly into SDS-resistant polymers.

Each structure is given as a SMILES string.

`O=S([O-])S(=O)(=O)[O-].[Na+].[Na+]` [sodium metabisulfite]: the “effect on Cu^2+-induced SDS-resistant Aβ polymerization” value was “moderately attenuates”.
